# Data as given in patent publication US20090042962A1, “Therapeutic Agent for Keratoconjunctival Disorder” (SANTEN PHARMACEUTICAL CO., LTD., priority 2005, published 2009).
# Test system: corneal disorder models
# Test: Test for therapeutic effect on corneal damage (exorbital lacrimal gland removal, fluorescein staining score)
# Format: in vivo, male SD rats
# Conditions: for Improvement ratio (%): instilled 6 times a day for 14 days; for Mean value of scores: instilled into both eyes 6 times a day for 14 days, fluorescein staining total score
# Description: Using male SD rats, corneal disorder models were produced in accordance with the method of Fujihara et al. (Invest. Opthalmol. Vis. Sci. 42 (1): 96-100 (2001)) After the production of the corneal disorder models, the corneal damage score was evaluated in accordance with the method of Murakami et al. (Journal of the eye 21 (1): 87-90 (2004)), and the improvement ratio of a corneal damage after instillation was obtained.
# Male SD rats were systemically anesthetized by an administration of Nembutal. Subsequently the exorbital lacrimal gland of each rat was removed and a corneal damage was induced over a period of 2 months.
# Then, 4′-[[4-methyl-6-(1-methylbenzimidazol-2-yl)-2-n-propylbenzimidazol-1-yl]methyl]-1,1′-biphenyl-2-carboxylic acid (hereinafter referred to as “Compound A”), 2-n-butyl-4-spirocyclopentane-1-[[2′-(1H-tetrazol-5-yl)-1,1′-biphenyl-4-yl]methyl]-2-imidazolin-5-one (hereinafter referred to as “Compound B”), 2-butyl-4-chloro-5-hydroxymethyl-1-[[2′-(1H-tetrazol-5-yl)-1,1′-biphenyl-4-yl]methyl]imidazole monopotassium salt (hereinafter referred to as “Compound C”), 2-ethoxy-1-[[2′-(1H-tetrazol-5-yl)-1,1′-biphenyl-4-yl]methyl]-1H-benzimidazol-7-carboxylic acid (hereinafter referred to as “Compound D”) […] N-[[2′-(1H-tetrazol-5-yl)-1,1′-biphenyl-4-yl]methyl]-N-valeryl-L-valine (hereinafter referred to as “Compound E”), or 4-(1-hydroxy-1-methylethyl)-2-n-propyl-1-[[2′-(1H-tetrazol-5-yl)-1,1′-biphenyl-4-yl]methyl]imidazol-5-carboxylic acid monohydrate (hereinafter referred to as “Compound F”) was administered to the rats as follows.
# A physiological saline solution containing Compound A (0.005%) was instilled into both eyes 6 times a day for 14 days (one group consisting of 4 animals, 8 eyes).
# A physiological saline solution containing Compound B (0.04%) was instilled into both eyes 6 times a day for 14 days (one group consisting of 4 animals, 8 eyes).
# A physiological saline solution containing Compound C (0.5%) was instilled into both eyes 6 times a day for 14 days (one group consisting of 3 animals, 6 eyes).
# A phosphate-buffered saline solution containing Compound D (0.004%) was instilled into both eyes 6 times a day for 14 days (one group consisting of 4 animals, 8 eyes).
# A phosphate-buffered saline solution containing Compound E (0.004%) was instilled into both eyes 6 times a day for 14 days (one group consisting of 4 animals, 8 eyes).
# A phosphate-buffered saline solution containing Compound F (0.004%) was instilled into both eyes 6 times a day for 14 days (one group consisting of 4 animals, 8 eyes).
# In a control group, physiological saline or phosphate-buffered saline was instilled into both eyes 6 times a day for 14 days (one group consisting of 4 animals, 8 eyes).
# Fourteen days after the start of instillation, the damaged parts of the cornea were stained with fluorescein. For each of the upper, middle and lower parts of the cornea, the degree of fluorescein staining was evaluated by scoring according to the criteria shown below and the improvement ratio of corneal damage was calculated from the mean value of the total scores for each of the above-mentioned parts. Also for normal eyes, the mean value of the total scores for each of the above-mentioned parts was obtained.
# 0: No punctate staining 1: Scattered staining (punctate staining being separated) 2: Moderate staining (a part of punctate staining being adjacent) 3: Heavy staining (punctate staining being barely separated)
# Incidentally, the mean value of the scores is a mean of those of 8 cases or 6 cases, respectively.
# Improvement ratio (%)={(control)−(the present compound)}/damage degree×100 Damage degree=(control)−(normal eye)
# [1] = 0.004% in phosphate-buffered saline, vs phosphate-buffered saline control, Table 2
# [2] = 0.004% in phosphate-buffered saline, Table 2 (normal eye 2.5, control 4.6)
structure (smiles),measurement,setting,value
"CCCc1nc(C(C)(C)O)c(C(=O)O)n1Cc1ccc(-c2ccccc2-c2nnn[nH]2)cc1.O [Compound F, 4-(1-hydroxy-1-methylethyl)-2-n-propyl-1-[[2′-(1H-tetrazol-5-yl)-1,1′-biphenyl-4-yl]methyl]imidazol-5-carboxylic acid monohydrate]",Improvement ratio (%),"0.004% in phosphate-buffered saline, vs phosphate-buffered saline control, Table 3",65.9%
same,Mean value of scores,"0.004% in phosphate-buffered saline, Table 3 (normal eye 2.2, control 6.3)",3.6
"CCCCc1nc(Cl)c(CO)n1Cc1ccc(-c2ccccc2-c2nnn[nH]2)cc1.[K] [Compound C, 2-butyl-4-chloro-5-hydroxymethyl-1-[[2′-(1H-tetrazol-5-yl)-1,1′-biphenyl-4-yl]methyl]imidazole monopotassium salt]",Improvement ratio (%),"0.5% in physiological saline, vs physiological saline control, Table 1",87.5%
same,Mean value of scores,"0.5% in physiological saline, Table 1 (normal eye 3.3, control 4.9)",3.5
"CCCCC1=NC2(CCCC2)C(=O)N1Cc1ccc(-c2ccccc2-c2nnn[nH]2)cc1 [Compound B, 2-n-butyl-4-spirocyclopentane-1-[[2′-(1H-tetrazol-5-yl)-1,1′-biphenyl-4-yl]methyl]-2-imidazolin-5-one]",Improvement ratio (%),"0.04% in physiological saline, vs physiological saline control, Table 1",62.5%
same,Mean value of scores,"0.04% in physiological saline, Table 1 (normal eye 3.3, control 4.9)",3.9
"CCOc1nc2cccc(C(=O)O)c2n1Cc1ccc(-c2ccccc2-c2nnn[nH]2)cc1 [Compound D, 2-ethoxy-1-[[2′-(1H-tetrazol-5-yl)-1,1′-biphenyl-4-yl]methyl]-1H-benzimidazol-7-carboxylic acid]",Improvement ratio (%),[1],47.6%
same,Mean value of scores,[2],3.6
"CCCc1nc2c(C)cc(-c3nc4ccccc4n3C)cc2n1Cc1ccc(-c2ccccc2C(=O)O)cc1 [Compound A, 4′-[[4-methyl-6-(1-methylbenzimidazol-2-yl)-2-n-propylbenzimidazol-1-yl]methyl]-1,1′-biphenyl-2-carboxylic acid]",Improvement ratio (%),"0.005% in physiological saline, vs physiological saline control, Table 1",62.5%
same,Mean value of scores,"0.005% in physiological saline, Table 1 (normal eye 3.3, control 4.9)",3.9
"CCCCC(=O)N(Cc1ccc(-c2ccccc2-c2nnn[nH]2)cc1)[C@H](C(=O)O)C(C)C [Compound E, N-[[2′-(1H-tetrazol-5-yl)-1,1′-biphenyl-4-yl]methyl]-N-valeryl-L-valine]",Improvement ratio (%),[1],33.3%
same,Mean value of scores,[2],3.9
